Values quoted from earlier work in patent publication EP2871189A1, “High-affinity monoclonal anti-strep-tag antibody” (INSTITUT PASTEUR, priority 2013, dated 2015).
pKd: −log10 of the molar value.

Target: Strep-Tactin
Settings: individual binding site (monovalent interaction) on Strep-Tactin; Schmidt TG et al, J.Mol. Biol. 1996; read-out: dissociation constant

In the case of “Strep-tag II peptide: peptide tag of minimal sequence WSHPQFEK (SEQ ID NO:9) that binds streptavidin / Strep-Tactin”, the pKd is listed as roughly 6.00.
